What was measured:
PPARγ [1] = biological target: T1, PPARγ (Homo sapiens, UniProt P37231); assay: cos-7 cells transfected with hPPARγ, PPRE×[…] TK-luciferase transactivation assay at […]; format: cell-based
T1 construct: gene PPARG; hPPARγ plasmid
T1 sequence (P37231 1-505): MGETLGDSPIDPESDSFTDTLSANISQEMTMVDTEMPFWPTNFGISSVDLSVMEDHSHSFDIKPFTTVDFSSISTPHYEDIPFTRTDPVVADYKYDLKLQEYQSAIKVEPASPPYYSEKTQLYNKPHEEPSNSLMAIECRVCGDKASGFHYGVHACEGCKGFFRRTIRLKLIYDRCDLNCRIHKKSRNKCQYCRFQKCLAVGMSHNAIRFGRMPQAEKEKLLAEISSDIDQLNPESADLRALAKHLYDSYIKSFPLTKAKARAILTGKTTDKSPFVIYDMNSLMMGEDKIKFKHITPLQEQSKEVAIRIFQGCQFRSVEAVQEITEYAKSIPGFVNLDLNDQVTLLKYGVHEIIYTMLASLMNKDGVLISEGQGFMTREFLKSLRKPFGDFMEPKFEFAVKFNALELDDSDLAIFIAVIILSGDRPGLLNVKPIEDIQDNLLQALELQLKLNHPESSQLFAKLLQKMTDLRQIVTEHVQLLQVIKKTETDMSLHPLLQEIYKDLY

PPARγ [2] = biological target: T2, PPARγ (Homo sapiens, UniProt P37231); assay: LanthaScreen TR-FRET competitive binding assay (IC50 […]); supported by cell-based PPRE-luciferase assay (weak/partial agonism)
T2 construct: gene PPARG; PPARγ LBD
T2 sequence (P37231 231-505 limits assumed): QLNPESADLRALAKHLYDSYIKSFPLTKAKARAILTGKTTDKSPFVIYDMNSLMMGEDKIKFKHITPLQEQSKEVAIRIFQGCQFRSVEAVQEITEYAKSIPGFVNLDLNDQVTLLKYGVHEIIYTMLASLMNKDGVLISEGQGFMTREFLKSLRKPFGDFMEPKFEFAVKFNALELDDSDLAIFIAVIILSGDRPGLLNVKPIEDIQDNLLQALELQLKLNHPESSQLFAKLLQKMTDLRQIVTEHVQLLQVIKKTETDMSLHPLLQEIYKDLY

SMILES | cos-7 cells transfected with hPPARγ, PPRE×3 TK-luciferase transactivation assay (PPARγ [1]) | Ki (PPARγ [2])
Clc1ccc(C(Cn2ccnc2)OCc2ccc(Sc3ccccc3)cc2)c(Cl)c1 (centres unmarked) [FN, fenticonazole] | podophyllotoxone exhibited weak PPARγ agonistic activity, similar to fenticonazole (FN), a PPARγ partial agonist | 
COc1cc([C@@H]2c3cc4c(cc3C(=O)[C@H]3COC(=O)[C@H]23)OCO4)cc(OC)c1OC [podophyllotoxone] |  | 9.86 µM
